Among the data in patent EP0542363A2 (GLAXO GROUP LIMITED, priority 1991, dated 1993) are IC50 values, retold here.

Structures can show the parent of a compound that is named as a salt. Where two headings read alike, the source gives them in different places.

The test has as its system human gel filtered platelets (GFP). Nature of the test: Inhibition of ADP-induced blood platelet aggregation in gel filtered platelets (Born-type optical aggregometer). Format: cell-based. The following applies: human GFP approx. 300,000 platelets/µl, human fibrinogen 0.5mg/ml, Ca2+ 1mM, Mg2+ 0.5mM, compounds incubated 5 minutes at 37°C, ADP 1 x 10⁻⁵M, concentration producing 50% inhibition of platelet aggregation, read-out: IC₅₀. As for the experimental part:
Inhibition of blood platelet aggregation by compounds of the invention was determined according to the following procedure. Citrated whole blood (1 part 3.8% trisodium citrate : 9 parts blood) was obtained from human volunteers, free of medication for at least 10 days prior to collection. The blood was incubated with 0.1mM aspirin and 0.05µM prostacyclin and then centrifuged at 1000g for 4 minutes (20°C). The supernatant platelet rich plasma (PRP) was further centrifuged at 1300g for 10 minutes (20°C) to sediment the platelets. The supernatant was discarded and the pellet washed with a physiological salt solution (HEPES 5mM, NaHCO₃ 12mM, NaCl 140mM, KH₂PO₄ 0.74mM, D-Glucose 5.6mM, KCl 2.82mM and BSA 20g/l, pH 7.4) to remove residual plasma. After washing, the pellet was resuspended in physiological salt solution and then applied to a sepharose CL-2B column, pre-equilibrated with physiological salt solution at room temperature. The platelets (GFP) eluted within the void volume and were diluted to approximately 300,000 platelets/µl in buffer. Purified human fibrinogen (Knight L.C. et al, 1981 Thromb. Haemostasis, 46(3), 593-596) was added to a final concentration of 0.5mg/ml together with Ca2+ and Mg2+ at 1mM and 0.5mM respectively. […] The potency of the compounds may be expressed as an IC₅₀ value defined as the concentration of compound required to produce 50% inhibition of platelet aggregation.

Turning to `COC(=O)NC(=N)c1ccc(N2CCN(C3CCN(CC(=O)O)CC3)CC2)cc1` [Example 34, 4-[4-[4-[Imino[(methoxycarbonyl)amino]methyl]phenyl]-1-piperazinyl]-1-piperidineacetic acid trifluoroacetate salt], the IC50 (5 min) was 1600 nM.

With `N=C(N)c1ccc(N2CCN(C3CC[N+](CC(=O)O)(Cc4ccccc4)CC3)CC2)cc1` (stereo not drawn) [Example 28, trans-4-[4-[4-(Aminoiminomethyl)phenyl]-1-piperazinyl]-1-(2-hydroxy-2-oxoethyl)-1-(phenylmethyl)piperidinium trifluoroacetate salt], the IC50 (trifluoroacetate salt) amounted to 38 nM. In the case of `CC(C(=O)O)N1CCC(N2CCN(c3ccc(C(=N)N)cc3)CC2)CC1` (centres unmarked) [Example 26], the IC50 (5 min) worked out at 177 nM. The same measure, in the same setting: the result for `N=C(N)c1ccc(N2CCN(C3CCN(CC(=O)O)CC3)CC2)nc1` [Example 41, trifluoroacetate salt] reads 30 nM.

Consider `C[N@+]1(CC(=O)O)CC[C@H](C2CCN(c3ccc(C(=N)N)cc3)CC2)CC1` [Example 21, trans-4-[1-[4-(Aminoiminomethyl)phenyl]-4-piperidinyl]-1-(2-hydroxy-2-oxoethyl)-1-methylpiperidinium trifluoroacetate salt], for which the IC50 (5 min) amounted to 41 nM. Turning to `CCOC(=O)CN1CCC(N2CCN(c3ccc(C(=N)N)cc3)CC2)CC1` [Example 23, trifluoroacetate salt], the IC50 (5 min) is 16200 nM. For the compound `CC1CN(c2ccc(C(=N)N)cc2)CCN1C1CCN(CC(=O)O)CC1` (centres unmarked) [Example 20, trifluoroacetate salt], where the note is “5 min”, the IC50 was 71 nM. The same measure, in the same setting: the result for `C[C@@H]1CN(CC(=O)O)CC[C@@H]1N1CCN(c2ccc(C(=N)N)cc2)CC1` (relative stereo) [Example 30, cis-4-[4-[4-Aminoiminomethyl)phenyl]-1-piperazinyl]-3-methyl-1-piperidineacetic acid trihydrochloride salt] reads 23 nM; that for `N=C(N)c1ccc(C2CCN(C3CCN(CC(=O)O)CC3)CC2)cc1` [Example 22, trifluoroacetate salt], 71 nM. The same measure, in the same setting: the result for `Cc1cc(C(=N)N)ccc1N1CCN(C2CCN(CC(=O)O)CC2)CC1` [Example 25, trifluoroacetate salt] reads 569 nM; that for `N=C(N)c1ccc(N2CCN(C3CCN(CC(=O)O)CC3)CC2)cn1` [Example 19, trifluoroacetate salt], 76 nM; that for `NC(=NO)c1ccc(N2CCN(C3CCN(CC(=O)O)CC3)CC2)cc1` [Example 17, 4-[4-[4-[Amino(hydroxyimino)methyl]phenyl]-1-piperazinyl]-1-piperidineacetic acid trifluoroacetate], 5660 nM.

Regarding `N=C(N)c1ccc(N2CCN(C3CCN(CC(=O)O)CC3)CC2)c(Br)c1` [Example 24, trifluoroacetate salt], where the note is “5 min”, the IC50 came out at 342 nM. Turning to `C[N@+]1(CC(=O)O)CC[C@H](N2CCN(c3ccc(C(=N)N)cc3)CC2)CC1` [Example 16a, trans-4-[4-[4-(Aminoiminomethyl)phenyl]-1-piperazinyl]-1-(2-hydroxy-2-oxoethyl)-1-methylpiperidinium trifluoroacetate salt], the IC50 (5 min) was 44 nM. The same measure, in the same setting: the result for `N=C(NCC(F)(F)F)c1ccc(N2CCN(C3CCN(CC(=O)O)CC3)CC2)cc1` [Example 18, 4-[4-[4-[Imino[(2,2,2-trifluoroethyl)amino]methyl]phenyl]-1-piperazinyl]-1-piperidineacetic acid trifluoroacetate salt] reads 316 nM. Regarding “4-[4-[4-[(Diethylphosphinyl)amino]iminomethyl]phenyI]-1-piperazinyl]-1- piperidineacetic acid trifluoroacetate salt [Example 36]”, the IC50 amounted to 2680 nM. `N=C(N)c1ccc(N2CCN(C3CC[N+](CC(=O)O)(Cc4ccccc4)CC3)CC2)cc1` (stereo not drawn) [Example 29, cis-4-[4-[4-(Aminoiminomethyl)phenyl]-1-piperazinyl]-1-(2-hydroxy-2-oxoethyl)-1-(phenylmethyl)piperidinium trifluoroacetate salt]: the IC50 (trifluoroacetate salt) worked out at 354 nM.
